Where a SMILES comes first, the peptide text is derived from it. Where no end group is shown, it is not given here. The star is where a group is joined. βNA = c1ccc2cc(N*)ccc2c1
Legend:
[1] = tested on: multi-drug resistant clinical isolate E. coli G69; test: Novobiocin potentiation assay (MIC of novobiocin with fixed concentration of peptide or PAβN); assay type: cell-based, Escherichia coli; design: key to MIC of Novobiocin, E. coli G69, +32 μg/mL added peptide / MIC of Novobiocin, E. coli G69, +128 μg/mL added peptide: Non potentiating (NP) indicated no reduction in the MIC of novobiocin was observed; settings: for MIC of Novobiocin, E. coli G69, +32 μg/mL added peptide / MIC of Novobiocin, E. coli G69, +128 μg/mL added peptide: Iso-Sensitest Broth, 5 × 10^5 CFU/mL, visual read-out; for MIC of Novobiocin, E. coli G69, +32 μg/mL added peptide: fixed 32 μg/mL peptide; for MIC of Novobiocin, E. coli G69, +128 μg/mL added peptide: fixed 128 μg/mL peptide; for potentiation of novobiocin against multi-drug resistant E. coli, result in words: E. coli G69, added peptide
Experimental: (§1) The peptides were also tested in combination with antibiotics novobiocin and norfloxacin. Novobiocin has low efficacy against Gram-negative bacteria due to its hydrophobicity, giving limited cell permeability.
(§2) The antibacterial activity of the peptides and peptide/antibiotic combinations were tested by the broth microdilution assay according to [24]. Escherichia coli NCTC 10,418 and Staphylococcus aureus NCTC 12,981 were obtained from the National Collection of Type Cultures, UK. Escherichia coli G69 was a clinical isolate as previously described.
(§3) Briefly, all bacterial strains were cultured on nutrient agar (Sigma-Aldrich, Gillingham, UK) plates and incubated for 24 h at 37 °C prior to MIC determination. In addition, known quantities of each test sample were dissolved in DMSO and then diluted in ISB (Iso- Sensitest Broth, Oxoid, Basingstoke, UK) to give a range concentration of 128–0 μg/mL, unless stated differently. […] Finally, the overnight cultures of each of the tested strains were suspended to an inoculum density of approximately 1.0 × 10^8 CFU/mL in phosphate buffered saline (PBS), consisting of 137 mM NaCl, 3 mM KCl, 8 mM Na2HPO4, and […] (Oxoid, Basingstoke, UK). The cell suspensions were standardized by adjusting the optical density to 0.1 at 600 nm (Thermo Scientific UV-Vis Spectrophotometer, Abingdon, UK) before being diluted 1:100 in ISB prior to inoculation
(§4) The assays were performed by microdilution using 96-well microtiter plates with a final inoculum of 5 × 10^5 CFU/mL and each sample was tested in duplicate in at least two independent experiments in order to confirm the reliability of the data. Results were determined by visual inspection of the wells and the presence of an evident opaque medium or white pellets were indicative of bacterial growth. The MIC values were recorded as the lowest concentration at which no bacterial growth was detected.

[2] = tested on: susceptible E. coli NCTC 10418; test: as above; assay type: cell-based, Escherichia coli; design: key to MIC of Novobiocin, E. coli NCTC 10418, +128 μg/mL added peptide / MIC of Novobiocin, E. coli NCTC 10418, +32 μg/mL added peptide: Non potentiating (NP) indicated no reduction in the MIC of novobiocin was observed; settings: for MIC of Novobiocin, E. coli NCTC 10418, +32 μg/mL added peptide / MIC of Novobiocin, E. coli NCTC 10418, +128 μg/mL added peptide: Iso-Sensitest Broth, 5 × 10^5 CFU/mL, visual read-out; for MIC of Novobiocin, E. coli NCTC 10418, +32 μg/mL added peptide: fixed 32 μg/mL peptide; for MIC of Novobiocin, E. coli NCTC 10418, +128 μg/mL added peptide: fixed 128 μg/mL peptide; for potentiation of the MIC of novobiocin, result in words: added peptide, wording covers susceptible and multi-drug resistant strain
Experimental: as §1, §2, §3, §4

[3] = tested on: multidrug resistant clinical isolate E. coli G69; test: Norfloxacin potentiation assay (MIC of norfloxacin with fixed concentration of peptide or PAβN); assay type: cell-based, Escherichia coli; settings: broth microdilution, duplicate; for MIC of norfloxacin, E. coli G69, +128 μg/mL of peptide: fixed 128 μg/mL peptide
Experimental: (§5) In order to gather more evidence on the potential mechanisms of action, the effects of the peptides in combination with the quinolone antibiotic norfloxacin were determined. Norfloxacin is active against Gram-negative bacteria, generally achieving entry via porin channels, but is also able to enter the bacterial cell via the membrane in porin-deficient mutants. Therefore, any membrane permeability mechanism would not be expected to have a significant effect on improving the activity of norfloxacin in porin-competent strains. This is indeed what was observed (Table S5), which added weight to our hypothesis that our very short peptides may be acting as membrane permeability enhancers for novobiocin.
as §2
as §3, with “inoculation […]” for “inoculation”
as §4, with “detected. […]” for “detected.”
(§6) potentiating novobiocin. Assays were performed at fixed concentration of 128 μg/mL against susceptible E. coli 10418 and multidrug resistant clinical isolate E. coli G69. Potentiation assay for norfloxacin was also performed in presence of 64 μg/mL of RND efflux pump inhibitor PAβN. All tests were repeated in […]
(§7) Compound Sequence MIC of norfloxacin (μg/mL) […]
(§8) inhibitor PaβN but no potentiation was observed, so the assay was not repeated at lower concentrations.

[4] = tested on: susceptible E. coli 10418; test: as above; assay type: cell-based, Escherichia coli; settings: broth microdilution, duplicate; for MIC of norfloxacin, E. coli 10418, +128 μg/mL of peptide: fixed 128 μg/mL peptide
Experimental: as §5, §2
as §3, with “inoculation […]” for “inoculation”
as §4, with “detected. […]” for “detected.”
as §6, §7, §8

[5] = tested on: Staphylococcus aureus NCTC 12981; test: microbe, parasite or virus in culture; assay type: cell-based; settings: NCTC 12981, 24 h
Experimental: (§9) The Minimum Inhibitory Concentrations (MIC) of compounds 1–27 were evaluated through a broth microdilution assay against susceptible strains of Escherichia coli (Gram–negative) and Staphylococcus aureus (Gram-positive).
as §2, §3, §4
(§10) Table S4. Minimum inhibitory concentration (MIC) of synthesised peptides and of reference antibiotics
(§11) novobiocin and norfloxacin.

[6] = tested on: Escherichia coli NCTC 10418; test: microbe, parasite or virus in culture; assay type: cell-based; settings: NCTC 10418, 24 h
Experimental: as §9, §2, §3, §4, §10, §11

[7] = fixed 32 μg/mL PAβN, broth microdilution, duplicate
[8] = fixed 64 μg/mL PAβN, broth microdilution, duplicate

Molecule | MIC of Novobiocin, E. coli G69, +32 μg/mL added peptide ([1]; broth microdilution, duplicate) | MIC of Novobiocin, E. coli G69, +128 μg/mL added peptide ([1]; broth microdilution, duplicate) | MIC of Novobiocin, E. coli NCTC 10418, +32 μg/mL added peptide ([2]; broth microdilution, duplicate) | MIC of Novobiocin, E. coli NCTC 10418, +128 μg/mL added peptide ([2]; broth microdilution, duplicate) | MIC of norfloxacin, E. coli G69, +128 μg/mL of peptide [3] | MIC of norfloxacin, E. coli 10418, +128 μg/mL of peptide [4] | other results
RFRF [Compound 9, short cationic peptide RFRF, amidated at the C-terminus] | 128 µg/mL | 8 µg/mL | NP | 2 µg/mL | > 128 µg/mL | 0.062 µg/mL | 
RPWPPR [Compound 23, proline-rich cationic peptide RPWPPR, amidated at the C-terminus] |  | NP |  | 4 µg/mL | > 128 µg/mL | 0.062 µg/mL | potentiation of the MIC of novobiocin, result in words [2]: shows potentiation, but only against the susceptible strain
WKPLPPR [Compound 24, proline-rich cationic peptide WKPLPPR, amidated at the C-terminus] |  | NP |  | NP | > 128 µg/mL | 0.062 µg/mL | potentiation of the MIC of novobiocin, result in words [2]: no synergism was observed
FKPLPPH [Compound 25, proline-rich peptide FKPLPPH, C-terminal amide; commercial sample from ThermoFisher] |  | NP |  | 8 µg/mL | > 128 µg/mL | 0.062 µg/mL | potentiation of the MIC of novobiocin, result in words [2]: Potentiation was restored but again only against susceptible strain
RPRPRPL [Compound 22, proline-rich cationic peptide RPRPRPL, amidated at the C-terminus] |  | NP |  | NP | > 128 µg/mL | 0.062 µg/mL | potentiation of the MIC of novobiocin, result in words [2]: did not show any significant potentiation
RWRW [Compound 5, short cationic peptide RWRW, amidated at the C-terminus] | 64 µg/mL | 16 µg/mL | 64 µg/mL | 2 µg/mL | > 128 µg/mL | 0.062 µg/mL | 
WRWRW-NH2 [Compound 6] |  |  |  |  |  |  | MIC, S. aureus NCTC 12981 [5]: 64 µg/mL; MIC, E. coli NCTC 10418 [6]: 64 µg/mL
RPRRPRLPW-NH2 [Compound 27] | 16 µg/mL | 16 µg/mL | 8 µg/mL | 0.125 µg/mL | > 128 µg/mL | 0.062 µg/mL | potentiation of novobiocin against multi-drug resistant E. coli, result in words [1]: restore the susceptibility; fold reduction in the MIC of novobiocin against the susceptible strain ([2]; E. coli 10418, added peptide): 256 fold
NC(N)=NCCC[C@H](NC(=O)[C@@H](N)Cc1ccccc1)C(=O)Nc1ccc2ccccc2c1 [PAβN, phenylalanine-arginine-β-naphthylamide, reference compound] (H-Phe-Arg-βNA) |  |  |  |  |  |  | MIC of Novobiocin, E. coli G69, +32 μg/mL PAβN [1, 7]: 8 µg/mL; MIC of Novobiocin, E. coli G69, +64 μg/mL PAβN [1, 8]: 2 µg/mL; concentration at which synergism with novobiocin is provided against multi-drug resistant E. coli G69 ([1]; molar equivalent of the 32 μg/mL fixed concentration): 72 µM; reduction in MIC for novobiocin, susceptible E. coli 10418 ([2]; PAβN concentration of 72 μM (32 μg/mL)): twofold; MIC of Novobiocin, E. coli NCTC 10418, +32 μg/mL PAβN [2, 7]: 16 µg/mL; MIC of Novobiocin, E. coli NCTC 10418, +64 μg/mL PAβN [2, 8]: 8 µg/mL; MIC of norfloxacin, E. coli G69, +64 μg/mL PAβN ([3]; fixed 64 μg/mL PAβN): > 128 µg/mL; MIC of norfloxacin, E. coli 10418, +64 μg/mL PAβN ([4]; fixed 64 μg/mL PAβN): 0.125 µg/mL
WRWR [Compound 4, short cationic peptide WRWR, amidated at the C-terminus] |  | NP | 32 µg/mL | 2 µg/mL | > 128 µg/mL | 0.062 µg/mL | 
FRRQRF [Compound 21, short cationic peptide FRRQRF, C-terminal amide; commercial sample from ThermoFisher] |  | NP |  | NP ^† | > 128 µg/mL | 0.062 µg/mL | 
WKWKW [Compound 15, short cationic peptide WKWKW, amidated at the C-terminus] | 128 µg/mL | 8 µg/mL | 8 µg/mL | 4 µg/mL | > 128 µg/mL | 0.125 µg/mL | potentiation of novobiocin against multi-drug resistant E. coli, result in words [1]: restore the susceptibility
RPPWRPPW [Compound 26] |  | NP | 64 µg/mL | 8 µg/mL | > 128 µg/mL |  | potentiation of novobiocin against multi-drug resistant E. coli, result in words [1]: no potentiation was seen against the multidrug resistant strain
WRRQRW [Compound 20, short cationic peptide WRRQRW, C-terminal amide; commercial sample from ThermoFisher] | NP | 32 µg/mL | 16 µg/mL | 4 µg/mL | > 128 µg/mL | 0.062 µg/mL | 
